From patent publication US5714594A, “cDNA cloning and expression of human liver estrogen sulfotransferase” (Mayo Foundation for Medical Education and Research, priority 1994, dated 1998)

Experiments:
human liver EST [1] = target: T1, human liver EST (Homo sapiens, UniProt P49888); test: ST activities in high-speed supernatants of COS-1 cells transfected with human liver EST cDNA; assay type: biochemical; parameters: expressed in transfected cells; host or cells: COS-1 cells, vector p91023(B); 100,000×g high-speed supernatant; details: substance is the sulfate acceptor substrate; transfected COS-1 cell preparation; 1 unit = 1 nmol sulfated product per hour at 37° C.
T1 sequence (P49888 1-294): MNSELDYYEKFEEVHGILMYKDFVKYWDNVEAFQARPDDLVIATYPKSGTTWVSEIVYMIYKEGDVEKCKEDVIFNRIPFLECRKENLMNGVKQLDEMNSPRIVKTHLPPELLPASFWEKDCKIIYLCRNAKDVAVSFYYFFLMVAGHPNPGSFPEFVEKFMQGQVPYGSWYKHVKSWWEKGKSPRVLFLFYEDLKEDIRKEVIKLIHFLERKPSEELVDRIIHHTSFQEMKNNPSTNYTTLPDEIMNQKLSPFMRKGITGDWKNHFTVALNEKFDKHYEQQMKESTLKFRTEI
Procedure: B. Expression in COS-1 cells. COS-1 cells were transfected with an EST cDNA expression construct in the eukaryotic expression vector p91023(B) as well as with vector alone using the DEAE-dextran method (H. Luthman et al., Nucleic Acids Res., 11, 1295-1308 (1983)). After harvesting, cell pellets were washed with 5 ml of phosphate buffered saline (PBS) and were homogenized for 30 seconds in 2 ml of 5 mM potassium phosphate buffer, pH 6.5. The homogenates were centrifuged at 15,000×g for 15 minutes at 4° C., and supernatants were centrifuged at 100,000×g for 1 hour at 4° C. Five μl aliquots of the 100,000×g "high-speed supernatants" (HSS) were assayed for ST enzymatic activities.
A. Sulfotransferase (ST) activities. The abilities of EST and DHEA ST to catalyze sulfation of various substrates were compared.
One unit of enzyme activity represented the formation of 1 nmol of sulfated product per hour of incubation at 37° C. All assays were performed in triplicate, and values reported are averages of those three determinations. Protein concentrations were measured by the method of Bradford (Anal. Biochem., 72, 248-254 (1976)) with bovine serum albumin as a standard.

human liver DHEA ST [2] = target: T2, human liver DHEA ST (Homo sapiens, UniProt Q06520); test: DCNP inhibition of DHEA ST activity; assay type: biochemical; parameters: expressed in transfected cells; host or cells: COS-1 cells; high-speed supernatant; details: DHEA as substrate; expressed in COS-1 cells; read-out: mean DCNP concentration at which DHEA ST activity was 50% inhibited
T2 sequence (Q06520 1-285): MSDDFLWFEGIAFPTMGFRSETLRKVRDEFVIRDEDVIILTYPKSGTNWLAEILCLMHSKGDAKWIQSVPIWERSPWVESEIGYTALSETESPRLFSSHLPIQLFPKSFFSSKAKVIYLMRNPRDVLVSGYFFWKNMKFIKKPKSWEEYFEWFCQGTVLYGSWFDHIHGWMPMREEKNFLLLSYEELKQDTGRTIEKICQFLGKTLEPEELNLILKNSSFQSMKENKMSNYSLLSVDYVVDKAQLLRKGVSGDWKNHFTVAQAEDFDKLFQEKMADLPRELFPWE
Procedure: (§1) D. DCNP inhibition of EST activity. […] EST activity (using its preferred substrate, estrone) and DHEA ST activity (using its preferred substrate, DHEA) were 50% inhibited at very similar mean DCNP concentrations, 28±2.9 and 40±2.3 μM, respectively (FIG. 4B).

human liver EST [3] = target: T1, human liver EST; test: DCNP inhibition of EST activity; assay type: biochemical; parameters: expressed in transfected cells; host or cells: COS-1 cells, vector p91023(B); 100,000×g high-speed supernatant; details: estrone as substrate; expressed in COS-1 cells; read-out: mean DCNP concentration at which EST activity was 50% inhibited
Procedure: as §1

human liver DHEA ST [4] = target: T2, human liver DHEA ST; details: 75 mM NaCl; DHEA as substrate
Procedure: (§2) Biochemical characterization of human EST were carried out using aliquots of HSS from COS-1 cells transfected with human liver EST cDNA. Parallel experiments were performed with human liver DHEA ST cDNA (D. M. Otterness et at., Mol. Pharmacol., 41, 865-872 (1992)) that had also been transiently expressed in COS-1 cells.
(§3) E. Effect of NaCl concentration on EST activity.

human liver EST [5] = target: T1, human liver EST; details: 150 mM NaCl; estrone as substrate; expressed in COS-1 cells
Procedure: as §2, §3

human EST = test: Optimization of EST assay conditions and preferred substrate; assay type: biochemical; details: compared with estradiol-17β, ethinyl estradiol or DHEA
Description: 1. Identification of the preferred substrate for human EST.
2. Optimization of EST assay conditions. Estrone was used as the substrate to determine optimal assay conditions and, subsequently, to characterize the properties of human EST.

[6] = substrate: C[C@]12CC[C@@H]3c4ccc(O)cc4CC[C@H]3[C@@H]1CCC2=O; test: Substrate kinetics (apparent Km) of ST activity, DHEA ST; assay type: biochemical, human; details: other: substance is the substrate; DHEA ST cDNA expressed in COS-1 cells
Procedure: (§4) B. Kinetics of ST activity. Substrate kinetic studies designed to estimate apparent Km values were performed. Since human liver EST and DHEA ST can both catalyze the sulfation of steroids, these studies presented an opportunity to determine apparent Km values of the two enzymes with estrone and DHEA as substrates. Both enzyme preparations were tested with a range of estrone and DHEA concentrations. […] Apparent Km values were calculated by the method of Wilkinson (Biochem. J., 80, 324-332 (1961)) with a computer program written by Cleland (Nature, 198, 463-465 (1963)).

[7] = substrate: C[C@]12CC[C@H](O)CC1=CC[C@@H]1[C@@H]2CC[C@]2(C)C(=O)CC[C@@H]12; test: as above; assay type: biochemical, human; details: other: substance is the substrate; DHEA ST cDNA expressed in COS-1 cells
Procedure: as §4

human liver DHEA ST [8] = target: T2, human liver DHEA ST; test: Thermal inactivation of ST activity, DHEA ST; assay type: physicochemical; parameters: expressed in transfected cells; host or cells: COS-1 cells; high-speed supernatant; details: preincubated 15 minutes; DHEA as substrate; HSS from COS-1 cells
Procedure: (§5) C. Thermal inactivation of ST activity. […] The temperatures at which 50% inactivation of EST (using its preferred substrate, estrone) and DHEA ST (using its preferred substrate, DHEA) activities occurred were 38.2±0.12 (mean±SEM) and 41.1±0.10° C., respectively (FIG. 4A). For the thermal inactivation experiment, HSS from COS-1 cells transfected with EST cDNA or DHEA ST cDNA was diluted 1:2 (v/v) with 5 mM potassium phosphate buffer, pH 6.5, preincubated at various temperatures for 15 minutes and was then placed on ice. An aliquot of the same preparation was kept on ice as a control. Each aliquot was then diluted further for assay of the ST activity being measured. Values for controls were determined at each temperature studied.

[9] = substrate: C[C@]12CC[C@@H]3c4ccc(O)cc4CC[C@H]3[C@@H]1CCC2=O; test: Substrate kinetics (apparent Km) of ST activity, EST; assay type: biochemical, human; details: other: substance is the substrate; EST cDNA expressed in COS-1 cells
Procedure: as §4

[10] = substrate: C[C@]12CC[C@H](O)CC1=CC[C@@H]1[C@@H]2CC[C@]2(C)C(=O)CC[C@@H]12; test: as above; assay type: biochemical, human; details: other: substance is the substrate; EST cDNA expressed in COS-1 cells
Procedure: as §4

human liver EST [11] = target: T1, human liver EST; test: Thermal inactivation of ST activity, EST; assay type: physicochemical; parameters: expressed in transfected cells; host or cells: COS-1 cells, vector p91023(B); 100,000×g high-speed supernatant; details: preincubated 15 minutes; estrone as substrate; HSS from COS-1 cells
Procedure: as §5

With `O=[N+]([O-])c1ccc(O)cc1` [4-nitrophenol] the “sulfation catalyzed by the protein encoded by the human liver EST cDNA” value (“sulfation catalyzed” for short) (human liver EST [1]) was 5 units/mg protein.

Work on `O=[N+]([O-])c1cc(Cl)c(O)c(Cl)c1` [DCNP, 2,6-dichloro-4-nitrophenol] yielded an IC50 (human liver DHEA ST [2]) of 40 ± 2.3 µM and an IC50 (human liver EST [3]) of 28 ± 2.9 µM.

For `C[C@]12CC[C@H](O)CC1=CC[C@@H]1[C@@H]2CC[C@]2(C)C(=O)CC[C@@H]12` [DHEA, dehydroepiandrosterone], the “sulfation catalyzed” value (human liver EST [1]) was 2.3 units/mg protein.

For `[Cl-].[Na+]` [NaCl], the “peak activation of human liver DHEA ST” value (human liver DHEA ST [4]) was 62% and the “increase of human liver EST activity” value (human liver EST [5]) was 86%.

In the case of `NCCc1ccc(O)c(O)c1` [dopamine], the “sulfation catalyzed” value (human liver EST [1]) is reported as “not”.

For `C[C@]12CC[C@@H]3c4ccc(O)cc4CC[C@H]3[C@@H]1CCC2=O` [estrone], the “ST enzyme activity as sulfate acceptor substrate, compared with other substrates” value (human EST) was “greater ST enzyme activity” and the “sulfation catalyzed” value (human liver EST [1]) was 9 units/mg protein.

B1: human liver DHEA ST (Homo sapiens) (protein)
chain: MSDDFLWFEGIAFPTMGFRSETLRKVRDEFVIRDEDVIILTYPKSGTNWLAEILCLMHSKGDAKWIQSVPIWERSPWVESEIGYTALSETESPRLFSSHLPIQLFPKSFFSSKAKVIYLMRNPRDVLVSGYFFWKNMKFIKKPKSWEEYFEWFCQGTVLYGSWFDHIHGWMPMREEKNFLLLSYEELKQDTGRTIEKICQFLGKTLEPEELNLILKNSSFQSMKENKMSNYSLLSVDYVVDKAQLLRKGVSGDWKNHFTVAQAEDFDKLFQEKMADLPRELFPWE
notes: expressed in transfected cells; host or cells: COS-1 cells; high-speed supernatant
For B1, the Km [6] was 3.1 µM, the Km [7] was 2.6 µM and the “temperature at which 50% inactivation of DHEA ST activity occurred (mean±SEM)” value (human liver DHEA ST [8]) was 41.1±0.10 °C.

B2: human liver EST (Homo sapiens) (protein)
chain: MNSELDYYEKFEEVHGILMYKDFVKYWDNVEAFQARPDDLVIATYPKSGTTWVSEIVYMIYKEGDVEKCKEDVIFNRIPFLECRKENLMNGVKQLDEMNSPRIVKTHLPPELLPASFWEKDCKIIYLCRNAKDVAVSFYYFFLMVAGHPNPGSFPEFVEKFMQGQVPYGSWYKHVKSWWEKGKSPRVLFLFYEDLKEDIRKEVIKLIHFLERKPSEELVDRIIHHTSFQEMKNNPSTNYTTLPDEIMNQKLSPFMRKGITGDWKNHFTVALNEKFDKHYEQQMKESTLKFRTEI
notes: expressed in transfected cells; host or cells: COS-1 cells, vector p91023(B); 100,000×g high-speed supernatant
With B2 the Km [9] was 0.17 µM, the Km [10] was 0.85 µM and the “temperature at which 50% inactivation of EST activity occurred (mean±SEM)” value (human liver EST [11]) was 38.2±0.12 °C.
